In brackets after ≈: the same amount, converted by molar mass. Entries after “also recorded” stand apart in the source; their conditions may differ.

The solubility is the dissolved amount per volume that the medium holds. A word on the Cmax: it is the maximum level reached in the sampled fluid or tissue. The Tmax is the time at which the peak concentration occurs. For orientation: AUC means concentration integrated over time.

The nature of one data set: Water solubility. The data set is classed as physicochemical.
Data set [1] concerns DSS-induced colitis. Description: DSS-induced colitis model of ulcerative colitis. The data set is classed as in vivo. Particulars: for DAI scores (disease activity index) versus PBS control / colon length (colon shortening) versus PBS control: 100 μg/kg ip on day 4, 2.0% DSS day 1-7, read on day 8. On the procedure: DSS treatment causes progressive weight loss, diarrhea and colon inflammation with a significant reduction in colon length, which leads to increases in the clinical scores of disease symptoms (DAI: disease activity index). C57BL/6 mice (n = 12 per group) were continuously treated with 2.0% DSS in their drinking water from day 1 to day 7. The mice were injected intraperitoneally with 100 μg/kg of the derivatives or PBS (control) on day 4. On day 8, the DAI scores and colon lengths of the mice administered the derivatives were compared with those of the mice administered PBS (control). […] Colon shortening is a feature of colon inflammation in the DSS-induced model. In the model, the colon length of healthy mice is about 8 cm (DSS (−)), whereas that of mice upon DSS treatment is about 4 cm (DSS + PBS) as shown in Fig. 7b. […] In this study, we selected the intraperitoneal injection as the administration method of lipid ligands, and used DAI scores and colon length to investigate the protective effects of derivatives against colitis. On the other hand, the difference in the administration method of immunomodulators, such as lipid ligands, might have a significant impact on their efficacy[46],[47]. In addition, the cytokine profiles in the colon upon ligand treatment could also provide useful information regarding their efficacy. Further research is currently being conducted into the effects of administration methods on efficacy and the examination of colon cytokine profiles.
The animal experiments using murine DSS model were conducted in accordance with the guidelines of Keio university institutional animal care and use committee. Specific pathogen-free C57BL/6 mice were purchased from Japan Clea (Tokyo, Japan). All mice were housed under specific pathogen-free conditions in microisolator cages in an animal facility, and male mice (7 weeks of age) were used. DSS (dextran sulfate sodium) was added to the water supply provided to the animals at a concentration of 2.0% (wt/vol) for days 1–7. Derivatives 2 and 3 were first dissolved in DMSO at 100 μg/mL and then diluted in PBS solution. The derivatives (100 μg/kg in 200 μL of solution) were injected intraperitoneally on day 4 after the induction of colitis. Control animals received 200 μL of PBS solution containing the same concentration of DMSO. Mice were sacrificed on day 8 after DSS administration. Intestinal tissues were removed and opened longitudinally. The length of the colon was measured after exclusion of cecum. The disease activity index (DAI), defined as stool blood, stool form and weight loss, and the length of the colon were used to analyze the therapeutic benefits of derivatives 2 and 3.

Data set [2] concerns the target T1, mCD1d-Fc fusion protein (Mus musculus, UniProt P11609).
T1 construct: Ig (mouse immunoglobulin fusion partner); purchased BD Biosciences
T1 sequence (P11609 22-305 limits assumed): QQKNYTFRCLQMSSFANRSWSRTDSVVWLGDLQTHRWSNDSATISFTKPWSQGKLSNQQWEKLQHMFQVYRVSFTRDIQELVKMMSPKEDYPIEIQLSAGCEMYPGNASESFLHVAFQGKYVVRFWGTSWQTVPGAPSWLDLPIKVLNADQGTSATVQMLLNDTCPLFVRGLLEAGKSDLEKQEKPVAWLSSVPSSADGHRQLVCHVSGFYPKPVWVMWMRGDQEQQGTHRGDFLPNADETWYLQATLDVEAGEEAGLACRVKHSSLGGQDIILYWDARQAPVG
T1 sequence (P01887 21-119 partner): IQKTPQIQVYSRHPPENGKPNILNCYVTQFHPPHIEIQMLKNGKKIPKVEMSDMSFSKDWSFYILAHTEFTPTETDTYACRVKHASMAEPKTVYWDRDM
Also on record: method as in PMID 27648599. Particulars: previously reported; cited from earlier work.

The test system of a further data set is mouse splenocytes. Description: Cytokine secretion assay using mouse splenocyte. The data set is classed as cell-based, C57BL/6 mice. The arrangement: IFN-γ production / IL-4 production / IL-17A production: unit not given here. Particulars: for IFN-γ production / IL-4 production / IL-17A production: 1 nM ligand, 48 h; for IFN-γ production: Fig. S2a; for IL-4 production: Fig. S2b; for IL-17A production: Fig. S2c; for Relative ratio IL-4/IFN-γ of cytokine production compared to α-GalCer / Relative ratio IL-17A/IFN-γ of cytokine production compared to α-GalCer: 1 nM; for Relative ratio IL-4/IFN-γ of cytokine production compared to α-GalCer: Fig. 5a; for Relative ratio IL-17A/IFN-γ of cytokine production compared to α-GalCer: Fig. 5b; for cytokine polarization in words: from relative ratios, Fig. 5. On the procedure:
Spleen cell suspensions (from C57BL/6 mice) were prepared in complete medium (RPMI 1,640 media supplemented with 10% FBS and 1% penicillin–streptomycin) and seeded into 96-well plates (6.0 × 10^5 cells/well). Lipid ligands were added, and the mixture were incubated at 37 °C for 48 h. IFN-γ, IL-4 and IL-17A release were measured with an ELISA kit (Affymetrix).

Data set [3] in a line: Metabolic stability, human liver microsome. Format: in vitro ADME. As to conditions: for half-life: liver microsomes, read-out: metabolic stability (liver microsome, T1/2) human.
Data set [4] is described as follows: Metabolic stability, rat liver microsome. The data set is classed as in vitro ADME. Particulars: for half-life: liver microsomes, read-out: metabolic stability (liver microsome, T1/2) rat.
Data set [5] is described as follows: Plasma pharmacokinetic profile in mice after ip dosing. Format: in vivo, C57BL/6J mice. As to conditions: male, C57BL/6, mouse, 100 ug/kg, 100 μg/kg ip, mice n = 6. On the procedure:
The pharmacokinetic study was approved by The Institutional Animal Care and Use Committee of Ono Pharmaceutical Co., Ltd. and was performed in accordance with the ethics criteria contained in the animal welfare bylaws of the Committee. The pharmacokinetics of 3 were studied following intraperitoneal administration. The 10 μg/mL dosing solution, which contained DMSO/Phosphate buffered saline = 1/9, was administered intraperitoneally to six male C57BL/6 mice (Charles River Laboratories, Japan, Inc.). Blood samples were collected into heparinized syringes at designated times and centrifuged to obtain the plasma samples. The plasma samples were assayed after protein precipitation by acetonitrile/ethanol (70/30, v/v), followed by HPLC/MS/MS analysis. Plasma concentration–time data were analyzed by noncompartmental methods.

The test system of data set [6] is DSS-induced colitis. The arrangement: method as in PMID 15674111. As to conditions: cited from earlier work.
Data set [7] has as its target T1, mCD1d-Fc fusion protein. The experiment in a line: Antigen presenting cell (APC)-free assay for lipid binding to mCD1d-Fc; IL-2 release by 2E10 NKT hybridoma cells. As to conditions: ligand 100 nM; mean ± SEM; Fig. 3c, d. Also on record: unit not given here. The data set is classed as cell-based. On the procedure:
NKT hybridoma 2E10 cells were cultured in RPMI-1640 (NACALAI TESQUE, INC) supplemented with 10% fetal bovine serum (FBS; Biowest), and 1% penicillin–streptomycin (Gibco).
For this assay, 96-well microplates (Bio-one 96-well cell culture plate, Greiner) were coated with mouse CD1d:Ig Fusion protein (BD Biosciences) (0.25 μg/well) in PBS at 37 °C for 24 h. […] After washing, 2E10 NKT hybridoma cells (2.5 × 10^5 cells/well) were added and cultured at 37 °C for 48 h. IL-2 release was measured with an ELISA kit (Affymetrix).

The mark [8] stands for this setting: Table S1, dash = below the detection limit (< 5 μM) according to b25.

Regarding `CCCCCCCCCCCCCC[C@@H](O)[C@@H](O)[C@H](CO[C@H]1O[C@H](CO)[C@H](O)[C@H](O)[C@H]1O)NC(=O)CCCCCCCCCCCNC(=O)CCCCCCCNC(=O)CC` [compound 2], in the data set “Water solubility” (setting [8]), the solubility is below 5 µM. The “mice died by day 8” value in the data set on DSS-induced colitis [1] (100 μg/kg ip on day 4, 2.0% DSS day 1-7, n = 12 per group) was “Two out of twelve”. For the same compound, in the data set on DSS-induced colitis [1], the “DAI scores (disease activity index) versus PBS control” value is on record as “did not significantly alter the DAI scores” and the “colon length (colon shortening) versus PBS control” value is “significantly prevented the colon shortening”. Besides, the “cytokine production / agonistic activity relative to α-GalCer, in words” value on mCD1d-Fc fusion protein [2] is listed as “higher levels of cytokine production relative to that caused by α-GalCer”. Further, in the data set with mouse splenocytes, the IFN-γ production is recorded as 9,467 ± 362, the IL-4 production came out at 593 ± 65, the IL-17A production is given as 5,179 ± 154 and the “Relative ratio IL-4/IFN-γ of cytokine production compared to α-GalCer” value is 3.15 ± 0.46. For the same compound, in the data set on mouse splenocytes, the “Relative ratio IL-17A/IFN-γ of cytokine production compared to α-GalCer” value was 2.98 ± 0.03 and the “cytokine polarization in words” value was “relatively less selective cytokine responses”. Besides, in data set [3], the half-life is below 0.25 h. Besides, in data set [4], the “metabolic stability in words” value was “resistant to rat microsomal metabolism” and the half-life amounted to 1.07 h.

With `CCCCCCCCCCCCCC[C@@H](O)[C@@H](O)[C@H](CO[C@H]1O[C@H](CO)[C@H](O)[C@H](O)[C@H]1O)NC(=O)CCCCCCCCCCCNC(=O)c1ccccc1` [compound 3], in data set [5], the Cmax came out at 92.8 ng/mL, the Tmax came to 1 h and the half-life is 5.2 h. In [5] (ip), this compound displayed an AUC of 466 ng·h/mL. In the data set “Water solubility” (detection limit 5 μM), this compound showed a solubility of 7.2 µM (≈ 5.62 µg/mL). In the data set with DSS-induced colitis [1], the “DAI scores (disease activity index) versus PBS control” value is recorded as “significant improvement in the DAI scores” and the “colon length (colon shortening) versus PBS control” value was “significantly prevented the colon shortening”. Moreover, the “cytokine production / agonistic activity relative to α-GalCer, in words” value at mCD1d-Fc fusion protein [2] is “higher levels of cytokine production relative to that caused by α-GalCer; also recorded: higher agonistic activity than α-GalCer”. Besides, in the data set with mouse splenocytes, the IFN-γ production worked out at 514 ± 79, the IL-17A production is reported as 1651 ± 127, the “Relative ratio IL-4/IFN-γ of cytokine production compared to α-GalCer” value is listed as 10.2 ± 1.6 and the “Relative ratio IL-17A/IFN-γ of cytokine production compared to α-GalCer” value was determined as 18.0 ± 1.7. In addition, in the data set with mouse splenocytes, the “cytokine polarization in words” value was “IL-4- and IL-17A-biasing properties”. For the same compound, in data set [3], the “metabolic stability in words” value was “suboptimal metabolic property for human liver microsome” and the half-life is below 0.25 h. In data set [4], the “metabolic stability in words” value is on record as “resistant to rat microsomal metabolism” and the half-life stood at 2.82 h.

As for `CCCCCCCCCCCCCCCCCCCCCCCC(=O)N[C@@H](COC1OC(CO)C(O)C(O)C1O)[C@H](O)[C@H](O)CCCCC` (stereo partly drawn) [OCH], the “efficacy in the murine DSS model, in words” value in the data set on DSS-induced colitis [6] is “effective in the murine DSS model”.

Regarding `CCCCCCCCCCCCCCCCCCCCCCCCCC(=O)N[C@@H](CO[C@H]1O[C@H](CO)[C@H](O)[C@H](O)[C@H]1O)[C@H](O)[C@H](O)CCCCCCCCCCCCCC` [α-GalCer, α-galactosyl ceramide, reference compound], the solubility in the data set “Water solubility” (setting [8]) is below 5 µM. In addition, in the data set “Water solubility” (detection limit 5 μM), the solubility is below 5 µM. In the data set with DSS-induced colitis [6], the “efficacy in the murine DSS model, in words” value was “effective in the murine DSS model”. For the same compound, in the data set on mouse splenocytes, the IFN-γ production is 12,297 ± 61, the IL-4 production is 247 ± 14 and the IL-17A production is recorded as 2,258 ± 242. The same compound had an IL-2 production at mCD1d-Fc fusion protein [7] of 274 ± 53.
